Consider two compounds from patent US12337000B2, “Therapeutic modulators of the reverse mode of ATP synthase” (priority 2017, dated 2025).

Data set [1] has as its system HL-1 cardiac muscle cell line. Particulars: 3 μM, HL-1 cells, data from [12]; cited from earlier work.
A short description of data set [2]: Human pharmacokinetics of oral almitrine dimesylate. The data set is classed as in vivo. As to conditions: 0.6*17, after 200 mg oral dose.
The conditions of data set [3]: humans [121]; cited from earlier work.
For data set [4] the following is noted: cited from earlier work.
In data set [5] the target is F1F0 ATP synthesis and hydrolysis (Homo sapiens, UniProt P06576+P25705). Particulars: isolated mitochondria, no matter how great the concentration [114]; cited from earlier work.
Where [6] appears, read: 30 year pharmacovigilance survey in France, oral, multi-year use [120].

The structures appear in SMILES notation.

With `CC[C@H]1/C=C/C=C/C[C@@H](C)[C@H](O)[C@@](C)(O)C(=O)[C@@H](C)[C@H](O)[C@@H](C)C(=O)[C@@H](C)[C@H](O)[C@@H](C)/C=C/C(=O)O[C@@H]2[C@H](C)[C@H](CC1)O[C@@]1(O[C@@H](C[C@@H](C)O)[C@@H](C)CC1=O)[C@H]2C` [Oligomycin B], the “change of O2 consumption” value in data set [1] was −40%.
`C=CCNc1nc(NCC=C)nc(N2CCN(C(c3ccc(F)cc3)c3ccc(F)cc3)CC2)n1` [almitrine]: in data set [2], the “corresponding tissue concentration (assuming uniform)” value was around 10 µM. For the same compound, in data set [3], the “volume of distribution (VD)” value was 17 L/kg. Besides, in data set [4] (setting [6]), the peripheral neuropathy is listed as 2,304 cases and the weight loss is recorded as 795 cases. Also, the “share of presenting cases categorised as serious” value in data set [4] ([120]) is reported as below 10%. In data set [4] (intravenous 459±155 mg within 24 hours, 25 patients [127]), the “patients with reversible lactic acidosis and hepatic dysfunction” value is 30%. Besides, the “mean onset of adverse reactions” value in data set [4] (oral, chronic use [120]) is 11 months. In addition, in data set [5], the “maximal decrease in F1F0 ATP synthesis and hydrolysis” value is given as around 60%.
